Legend:
[1] = system: human retinal pigmented epithelial cells; assay: α-SMA expression in retinal pigmented epithelial cells; format: cell-based; conditions: back to basal levels at 10 μM
Excerpt: (§1) In many of these disorders, circulating growth factors and chemokines promote the transformation of normal ocular cells into fibrocontractile, scar tissue-producing cells that have been termed “myofibroblasts”. Normally, myofibroblasts are responsible for tissue repair as part of the wound healing response following injury. However altered number and function of myofibroblasts are implicated in diseases characterized by pathological scar tissue formation in the liver, skin, lung, kidney, heart and eyes. In the eye, transformation of retinal pigmented epithelial (RPE) cells to a myofibroblast phenotype is linked to formation of fibro-contractile membranes which cause retinal detachment and subsequent vision impairment. In addition, myofibroblast transformation of ocular fibroblasts can result in abnormal scar tissue production after eye injury leading to subsequent vision loss. Although many of the circulating protein factors in the eye that promote myofibroblast formation have been identified, nothing is known regarding the role of lysolipids such as S1P in this process. Therefore, we examined the effects of S1P on myofibroblast transformation of several human ocular cell lines.
(§2) In these experiments, the ability of S1P to promote α-SMA expression differed in a concentration dependent manner between the retinal pigmented epithelial cells and conjunctiva fibroblasts. […]

[2] = system: human conjunctiva fibroblasts; assay: α-SMA expression in conjunctiva fibroblasts; format: cell-based; conditions: only at this concentration
Excerpt: as §1, §2

[3] = system: human conjunctiva fibroblasts; assay: PAI-1 expression in conjunctiva fibroblasts; format: cell-based
Excerpt: Collagen is one of the primary structural proteins that supports all tissues in the body and is one of the main components of scar tissue. In the non-pathological setting, total collagen content within tissue is maintained via a balance between collagen production by fibroblasts and degradation by certain enzymes. A number of disorders that involve increased levels of scar tissue result, in part, from physiological and molecular processes that inhibit degradation of collagen that is need for scar formation. It was hypothesized that the ability of S1P to promote scar tissue formation may result from its ability to inhibit collagen degradation, thereby leading to net increases in scar tissue within organs. Therefore, the effects of S1P on expression of plasminogen activator inhibitor (PAI-1) in human conjunctiva fibroblasts were examined.

COLO 205 tumor = assay: SC COLO205 colorectal tumor xenograft in nude NCr mice; format: in vivo, mouse; conditions: LT1009 50 mg/kg ip q3d; Avastin 40 mg/kg iv q7d; Paclitaxel 15 mg/kg iv q1d×5
Experimental: Nude mice were implanted sc near the right flank with one fragment per mouse of COLO 205 tumor from an in vivo passage. All treatments were initiated the day when 60 mice in each experiment established tumors ranging in size from approximately 100 to 200 mm3. […] Avastin was administered iv at a dosage of 40 mg/kg/dose on a q7d schedule, injected in a volume of 0.1 mL/20 g body weight. Paclitaxel (positive control), was administered iv at a dosage of 15 mg/kg/dose on a q1d×5 schedule, injected in a volume of 0.1 mL/10 g body weight.
(§3) Animals were observed daily for mortality. Tumor dimensions and body weights were collected twice weekly starting with the first day of treatment and including the day of study termination. When the median tumor in the vehicle-treated control group in each study reached approximately 4,000 mg, the study was terminated. Tumors from each animal were harvested, wet weights were recorded, tumors were processed for determination of microvascular densities (MVD) by CD-31 staining. Tumor weights (mg) were calculated using the equation for an ellipsoid sphere (l×w^2)/2=mm^3, where l and w refer to the larger and smaller dimensions collected at each measurement and assuming unit density (1 mm^3=1 mg).

HT29 tumor = assay: SC HT29 colorectal tumor xenograft in nude NCr mice; format: in vivo, mouse; conditions: LT1009 50 mg/kg ip q2d; Avastin 20 mg/kg q4d; 5-FU 75 mg/kg q4d
Experimental: Nude mice were implanted sc near the right flank with one fragment per mouse of HT29 tumor from an in vivo passage. All treatments were initiated the day when 60 mice in each experiment established tumors ranging in size from approximately 100 to 200 mm^3. There were ten mice per treatment group. […] 75 mg/kg 5-FU and 20 mg/kg Avastin were administered ip and iv at a dosage of 75 mg/kg/dose and 20 mg/kg/dose, respectively, q4d, injected in a volume of 0.1 mL/10 g body weight.
as §3, with “recorded, and” for “recorded,”, “MVD” for “microvascular densities (MVD)”

DU145 tumor = assay: SC DU145 prostate tumor xenograft in nude NCr mice; format: in vivo, mouse; conditions: LT1009 50 mg/kg ip q2d; Avastin 20 mg/kg q4d; Paclitaxel 7.5 mg/kg q1d×5
Experimental: Nude mice were implanted sc near the right flank with one fragment per mouse of DU145 tumor from an in vivo passage. All treatments were initiated the day when 60 mice in each experiment established tumors ranging in size from approximately 100 to 200 mm^3. […] Paclitaxel and Avastin were administered iv and ip at a dosage of 7.5 mg/kg/dose and 20 mg/kg/dose, q1d×5 and q4d, respectively, injected in a volume of 0.1 mL/10 g body weight.
During the course of the study tumor growth was monitored by measuring the sc tumors on three axes and calculating the volume. At the end of the study final tumor weights and volumes were determined and then the mice were sacrificed, the tumors harvested. Microvascular densities (MVD) of the tumors were then determined by CD-31 staining.

CCCCCCCCCCCCC/C=C/[C@@H](O)[C@@H](N)COP(=O)(O)O [S1P, sphingosine-1-phosphate]
concentration at which a significant increase in α-SMA expression was observed [1]: 0.001 µM | concentration at which a significant increase in α-SMA expression was observed [2]: 10 µM | PAI-1 expression [3]: stimulates the PAI-1 expression in a dose-dependent manner

Avastin: anti-angiogenic drug, bevacizumab (Avastin®, Genentech)
Final Tumor Weights (COLO 205 tumor): 1967.90 mg | % Reduction compared to Vehicle-Treated Mice (HT29 tumor): 30% | Final Tumor Weights (HT29 tumor): 1927.44 mg | Final Tumor Weights (DU145 tumor): 578 mg

Source: patent publication US8614103B2, “Compositions and methods for treating sphingosine-1-phosphate (S1P) related ocular diseases and conditions” (Lpath, Inc., priority 2006, dated 2013)
